PubChem BioAssay AID248 (DTP/NCI, 2004)
Where “and” joins values, the source holds several entries; their conditions need not be identical. Equal entries are not always repeated. Toxic doses and inconclusive results are not listed.

Tested on: L1210 leukemia ip in BDF1 mice, survival T/C
Test: NCI In Vivo Anticancer Drug Screen. Data for tumor model L1210 Leukemia (intraperitoneal) in B6D2F1 (BDF1) mice
Details: endpoint: mean survival time, higher = longer survival
In short: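 Ratio derived from survival: compound-dosed mice over vehicle-dosed mice, all bearing a transplantable tumor.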

[1] = dose: 100.0 mg/kg/injection, schedule: Q04DX002 (ip), vehicle: saline
[2] = dose: 100.0 mg/kg/injection, schedule: Q01DX009 (ip), vehicle: saline with Tween-80
[3] = dose: 100.0 mg/kg/injection, schedule: Q01DX001 (ip), vehicle: saline
[4] = dose: 200.0 mg/kg/injection, schedule: Q01DX001 (ip), vehicle: saline
[5] = dose: 400.0 mg/kg/injection, schedule: Q01DX001 (ip), vehicle: saline
[6] = dose: 25.0 mg/kg/injection, schedule: Q01DX009 (ip), vehicle: Klucel (hydroxypropylcellulose) (HPC)
[7] = dose: 50.0 mg/kg/injection, schedule: Q01DX009 (ip), vehicle: Klucel (hydroxypropylcellulose) (HPC)
[8] = dose: 200.0 mg/kg/injection, schedule: Q01DX009 (ip), vehicle: Klucel (hydroxypropylcellulose) (HPC)
[9] = dose: 100.0 mg/kg/injection, schedule: Q01DX009 (ip), vehicle: Klucel (hydroxypropylcellulose) (HPC)
[10] = dose: 100.0 mg/kg/injection, schedule: Q04DX003 (ip), vehicle: Klucel (hydroxypropylcellulose) (HPC)
[11] = dose: 200.0 mg/kg/injection, schedule: Q04DX003 (ip), vehicle: Klucel (hydroxypropylcellulose) (HPC)
[12] = dose: 400.0 mg/kg/injection, schedule: Q04DX003 (ip), vehicle: Klucel (hydroxypropylcellulose) (HPC)
[13] = dose: 100.0 mg/kg/injection, schedule: Q04DX003 (ip), vehicle: saline with Tween-80
[14] = dose: 200.0 mg/kg/injection, schedule: Q04DX003 (ip), vehicle: saline with Tween-80
[15] = dose: 400.0 mg/kg/injection, schedule: Q04DX003 (ip), vehicle: saline with Tween-80
[16] = dose: 100.0 mg/kg/injection, schedule: Q04DX002 (ip), vehicle: Klucel (hydroxypropylcellulose) (HPC)
[17] = dose: 200.0 mg/kg/injection, schedule: Q04DX002 (ip), vehicle: Klucel (hydroxypropylcellulose) (HPC)
[18] = dose: 400.0 mg/kg/injection, schedule: Q04DX002 (ip), vehicle: Klucel (hydroxypropylcellulose) (HPC)

c1ccc(CNCc2ccccn2)nc1
T/C (dose: 50.0 mg/kg/injection, schedule: Q04DX002 (ip), vehicle: saline): 95 % of control | T/C [1]: 101 % of control

COc1ccc2nccc(C(=O)CCC3CCN(C(=O)c4ccc([N+](=O)[O-])cc4)CC3C(CBr)CCBr)c2c1 (stereo not drawn)
T/C (dose: 100.0 mg/kg/injection, schedule: Q01DX001 (ip), vehicle: other): 104 % of control | T/C (dose: 200.0 mg/kg/injection, schedule: Q01DX001 (ip), vehicle: other): 88 % of control | T/C (dose: 400.0 mg/kg/injection, schedule: Q01DX001 (ip), vehicle: other): 111 % of control

S=C(SC(=S)N(C1CCCCC1)C1CCCCC1)N(C1CCCCC1)C1CCCCC1
T/C (dose: 25.0 mg/kg/injection, schedule: Q01DX009 (ip), vehicle: saline with Tween-80): 92 % of control | T/C (dose: 50.0 mg/kg/injection, schedule: Q01DX009 (ip), vehicle: saline with Tween-80): 90 % of control | T/C [2]: 86 % of control and 89 % of control

CC(C)CC(C)(CC(C)C)C(=O)O
T/C [3]: 100 % of control | T/C [4]: 100 % of control | T/C [5]: 102 % of control

Cc1c(NC(=O)Nc2cccc(C(F)(F)F)c2)c(=O)n(-c2ccccc2)n1C
T/C [6]: 88 % of control | T/C [7]: 86 % of control | T/C [8]: 96 % of control

CCOC(=O)c1cnc(NCC(C)(C)C)[nH]c1=O
T/C [3]: 95 % of control | T/C [4]: 91 % of control | T/C [5]: 91 % of control

CC(C)C1C(C)N1C(C)C (stereo not drawn)
T/C [6]: 107 % of control | T/C [7]: 100 % of control | T/C [9]: 104 % of control | T/C [10]: 95 % of control

COc1ccc(C=C2CCC2)cc1
T/C (dose: 100.0 mg/kg/injection, schedule: Q04DX003 (ip), vehicle: gum acacia): 95 % of control | T/C (dose: 200.0 mg/kg/injection, schedule: Q04DX003 (ip), vehicle: gum acacia): 99 % of control | T/C (dose: 400.0 mg/kg/injection, schedule: Q04DX003 (ip), vehicle: gum acacia): 99 % of control

CCCOP(=O)(N1CC1(C)C)N1CC1(C)C (stereo not drawn)
T/C [1]: 201 % of control | T/C (dose: 200.0 mg/kg/injection, schedule: Q04DX002 (ip), vehicle: saline): 155 % of control

O=c1[nH]cnc2nc(Br)[nH]c12
T/C [3]: 104 % of control | T/C [4]: 95 % of control | T/C [5]: 98 % of control

Nc1ccc(F)cc1[N+](=O)[O-]
T/C [7]: 106 % of control | T/C [9]: 93 % of control | T/C [10]: 105 % of control | T/C [8]: 95 % of control | T/C [11]: 94 % of control | T/C (dose: 400.0 mg/kg/injection, schedule: Q01DX009 (ip), vehicle: Klucel (hydroxypropylcellulose) (HPC)): 90 % of control | T/C [12]: 91 % of control

Nc1ccc(C(=O)O)c(C(=O)O)c1
T/C [2]: 101 % of control | T/C [10]: 100 % of control | T/C (dose: 200.0 mg/kg/injection, schedule: Q01DX009 (ip), vehicle: saline with Tween-80): 91 % of control | T/C [11]: 98 % of control | T/C [12]: 102 % of control

CNC(=O)C1C2C=CC(CC2)C1C(=O)NC (stereo not drawn)
T/C [13]: 108 % of control | T/C [14]: 100 % of control | T/C [15]: 100 % of control

Cc1ccccc1NC(=O)Oc1ccccc1-c1ccccc1
T/C [16]: 103 % of control | T/C [17]: 118 % of control | T/C [18]: 118 % of control

CC(C)OC(=S)SCC(=O)c1ccc(C(F)(F)F)cc1
T/C [16]: 96 % of control | T/C [17]: 92 % of control | T/C [18]: 92 % of control

O=C1c2cc(-c3ccccc3)c(-c3ccccc3)cc2C(c2ccccc2)(c2ccccc2)C1Br (stereo not drawn)
T/C [13]: 94 % of control | T/C [14]: 91 % of control | T/C [15]: 93 % of control
